# Experimental data: the supplement of paper PMC11208160
# Experiment: recombinant UMI read abundance after kanamycin selection (control-corrected) (log10(CPM+1)); higher = more efficient recombination; extreme values may be limits of the assay; sequences stand for … in AGTGCAGAGAAAATCGGCCAGTTTTCTCTGCCTGCAGTCCGCATGCCGTGGGACCCCTTGGGTTCTAACCTGTTGCCTAGATTTATGCAGCGGACTGCCTTTCTCCCAAAGTGATAAACCGG…AGGTTGGTTTCACT; site = the 11-nt donor
# Procedure, shortened: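 Under IPTG (0.07 mM) plus kanamycin, or without selection, Escherichia coli carrying a UMI-tagged donor and donor-binding-loop pair library and a target plasmid for the IS621 bridge recombinase were plated in two replicates. Recombinant UMIs were PCR-amplified across the donor–target junction and sequenced. Counts were converted to CPM, averaged over replicates, scaled by control-derived factors and reported as log10(CPM+1).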
# 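Also: IS621 bridge recombinase in Escherichia coli cells against a fixed T5 target plasmid.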
row,Sequence,recombinant UMI read abundance (log10)
1,GATTGGACATGGACCGGTTTTCCCGGTAATCCGTATTTGAC (site GAGTGGACTGT),0
2,GATTGGACATGGACCGGTTTTCCCGGTAATCCGTATTTGAC (site GATAGGACTGT),0.353
3,GATTGGACATGGACCGGTTTTCCCGGTAATCCGTATTTGAC (site GATCGGACTGT),0.745
4,GATTGGACATGGACCGGTTTTCCCGGTAATCCGTATTTGAC (site GATGGGACTGT),0
5,GATTGGACATGGACCGGTTTTCCCGGTAATCCGTATTTGAC (site GATTAGACTGT),0
6,GATTGGACATGGACCGGTTTTCCCGGTAATCCGTATTTGAC (site GATTCGACTGT),0
7,GATTGGACATGGACCGGTTTTCCCGGTAATCCGTATTTGAC (site GATTGAACTGT),0
8,GATTGGACATGGACCGGTTTTCCCGGTAATCCGTATTTGAC (site GATTGCACTGT),0
9,GATTGGACATGGACCGGTTTTCCCGGTAATCCGTATTTGAC (site GATTGGACTAT),0.0111
10,GATTGGACATGGACCGGTTTTCCCGGTAATCCGTATTTGAC (site GATTGGACTCT),0.00872
11,GATTGGACATGGACCGGTTTTCCCGGTAATCCGTATTTGAC (site GATTGGACTGA),0.0103
12,GATTGGACATGGACCGGTTTTCCCGGTAATCCGTATTTGAC (site GATTGGACTGC),0
13,GATTGGACATGGACCGGTTTTCCCGGTAATCCGTATTTGAC (site GATTGGACTGG),0
14,GATTGGACATGGACCGGTTTTCCCGGTAATCCGTATTTGAC (site GATTGGACTGT),0.659
15,GATTGGACATGGACCGGTTTTCCCGGTAATCCGTATTTGAC (site GATTGGACTTT),0.0228
16,GATTGGACATGGACCGGTTTTCCCGGTAATCCGTATTTGAC (site GATTGGCCTGT),0
17,GATTGGACATGGACCGGTTTTCCCGGTAATCCGTATTTGAC (site GATTGGGCTGT),0
18,GATTGGACATGGACCGGTTTTCCCGGTAATCCGTATTTGAC (site GATTGGTCTGT),0
19,GATTGGACATGGACCGGTTTTCCCGGTAATCCGTATTTGAC (site GATTGTACTGT),0
20,GATTGGACATGGACCGGTTTTCCCGGTAATCCGTATTTGAC (site GATTTGACTGT),0
21,GATTGGACATGGACCGGTTTTCCCGGTAATCCGTATTTGAC (site GCTTGGACTGT),0
22,GATTGGACATGGACCGGTTTTCCCGGTAATCCGTATTTGAC (site GGTTGGACTGT),0.928
23,GATTGGACATGGACCGGTTTTCCCGGTAATCCGTATTTGAC (site GTTTGGACTGT),0
24,GATTGGACATGGACCGGTTTTCCCGGTAATCCGTATTTGAC (site TATTGGACTGT),1.83
25,GATTGGACATGGACCGGTTTTCCCGGTAATCCGTATTTGAG (site GATTGGACTAT),0.00853
26,GATTGGACATGGACCGGTTTTCCCGGTAATCCGTATTTGAG (site GATTGGACTCT),1.33
27,GATTGGACATGGACCGGTTTTCCCGGTAATCCGTATTTGAG (site GATTGGACTGT),0
28,GATTGGACATGGACCGGTTTTCCCGGTAATCCGTATTTGAG (site GATTGGACTTT),0.0197
29,GATTTATCATGGACCGGTTTTCCCGGTAATCCGTATTTGAA (site GATTTATCTTT),1.64
